The numbers were not newly measured in patent US20170312324A1, “USE OF MAITAKE AND MAITAKE GRIFOLAN D COMPONENT IN PREPARATION OF ANTIDEPRESSANT DRUG” (Yunnan University, priority 2014, published 2017), which cites them from elsewhere.

The series concerns tumor. Conditions: comparison experiment with mitomycin.

For the compound `CO[C@@]12[C@H](COC(N)=O)C3=C(C(=O)C(C)=C(N)C3=O)N1C[C@@H]1N[C@@H]12` [mitomycin], the “anti-tumor rate / tumor inhibition rate” value is 45%.
